# Reference: patent US6355674B1, “Aminotetralins as 5-HT1D α Agonists” (Eli Lilly and Company, priority 1997, dated 2002)
# Structures can show the parent of a compound that is named as a salt.
row,SMILES,melting point
1,CN(C)C1CCc2cccc(C3CCCC3)c2C1 (stereo not drawn) (as salt: hydrochloride),158 to 159 °C
2,CN(C)C1CCc2cccc(C3(O)CCCCC3)c2C1 (stereo not drawn) (as salt: hydrobromid) (hydrate or solvate),210 to 211 °C
3,COCCOCc1cccc2c1CC(N(C)C)CC2 (stereo not drawn) (as salt: hydrochloride),147 to 148 °C
4,C/C=C(\CC)c1cccc2c1C[C@H](N(C)C)CC2 (as salt: hydrochloride),158 to 160 °C
5,Cc1cccc2c1C[C@H](N(C)C)CC2 (as salt: hydrochloride),180 to 181 °C (dec.)
6,CN(C)C1CCc2cccc(C3(O)CCCCCC3)c2C1 (stereo not drawn) (as salt: hydrobromid) (hydrate or solvate),186 to 187 °C
